Experimental data from patent US20130303518A1, “Methods of Inhibiting the Catalytic Activity of a Protein Kinase and of Treating a Protein Kinase Related Disorder” (JIANGSU HANSOH PHARMACEUTICAL CO., LTD., priority 2007, published 2013).
Entries after “also recorded” stand apart in the source; their conditions may differ. Marks after values point to notes of the source that are not given here.

How the values were obtained:
[1] = target: T1, recombinant human VEGF-R2 (Homo sapiens, UniProt P35968); assay: VEGFR-2 kinase assay (ELISA, time-resolved fluorescence); format: biochemical; details: recombinant human VEGF-R2, 10 μM ATP, 25° C., 30 minutes; read-out: IC50 (VEGFR-2/bio)
T1 construct: purchased Cell signaling technology #7787
Method: This assay is used to measure the in vitro kinase activity of recombinant human VEGF-R2 in an ELISA assay.
• a. […] Stop Buffer: 50 mM EDTA, pH 8.0. • d.
The following protocol was used: • 1. The test compound was diluted with DMSO to the desired final assay concentration. […] 6 μM substrate peptide (Tyr87) was diluted with dH2O (1:1), 15 μl was added to every assay. • 3. VEGFR-2 enzyme was immediately transferred from −80° C. to ice, and the enzyme was allowed to thaw on ice. • 4. 2.2 μg VEGFR-2 enzyme was taken to the enzyme tube. • 5. […] 0.75 ml of DTT/Kinase buffer was transferred to each enzyme tube to prepare 4× reaction cocktail, and 7.5 μl 4× reaction cocktail was added to every assay. • 7. […] The reaction tube was incubated at 25° C. for 30 minutes. • 9. 30 μl/assay stop buffer (50 mM EDTA, pH 8.0) was added to stop the reaction. • 10. 25 μl of each reaction and 75 μl dH2O/well was transferred to a 96-well streptavidin coated plate, with shaking at room temperature for 60 minutes. • 11. Each well was washed three times with 200 μl PBS-T buffer. Plate was patted on paper towel to remove excess liquid. • 12. […] The reaction tube was incubated, with shaking at room temperature for 60 minutes. • 14. Washing was carried out as described above in step 11. • 15. Europium labeled anti-mouse IgG was diluted 1:500 in PBS-T buffer with 1% BSA, 100 μl diluted antibody was added to each well. • 16. The reaction tube was incubated, with shaking at room temperature for 30 minutes. • 17. Each well was washed five times with 200 μl PBS-T buffer. Plate was patted on paper towel to remove excess liquid. • 18. 100 μl/well DELFIA® Enhancement Solution was added. • 19. The reaction tube was incubated, with shaking at room temperature for 5 minutes. • 20.
The IC50 value can be derived from the IRs of compounds at different concentration gradients.

[2] = tested on: HUVEC cell; assay: Inhibition of cell proliferation assay (SRB) on VEGFR high expressing HUVEC cells; details: Homo sapiens, 72 h, read-out: IC50 (VEGFR/HUVEC)
Method: The following in vitro assay may be used to determine the level of activity and effect of different compounds of the present invention on the proliferation inhibition (cell toxic) of endothelium growth factor receptor (VEGFR) high expressing Homo sapiens cancer cell-HUVEC cell.
Then the cells are put back to the incubator and cultured for continuous 72 hours. 72 hours later, the cell exposed to compounds and control cell are assayed for their proliferation using Sulforhodamine B (SRB) method.
HUVEC cells were grown in growth media (DMEM/F12, supplemented with 10% FBS) in 100 mm corning culture plates till confluence at 37° C., 5% CO2. • 2. HUVEC cells were washed in 100 mm plates with FBS, then the cells were harvested by trypsinization and seeded to corning 96-well cell culture plates at concentration of 50000 cells/ml, leaving 6 wells/each plate empty as background. • 3. […] The compounds stock solution was prepared, using DMSO to solve candidate compounds to a concentration of 20 mM. Then DMSO was used to dilute the stock solution to a serious concentration of tested compounds solution (namely, 2 mM, 1 mM, 0.2 mM, 20 μM, 2 μM, 0.2 μM). • 5. […] Each DMSO serial concentration compound solution was diluted by 20 times with culture medium by adding 5 μl DMSO compound solution to 95 μl culture medium, then mixed well by vortex. This promised that the DMSO concentration at that the HUVEC cell will exposed to will not surpass 0.5%. • 6. […] Each well was added 180 μl medium, then 20 μl medium solution of tested compounds prepared at step 5 was added to each well. For negative control group cell, 20 μl culture medium containing 0.5% pure DMSO was added. So, HUVEC cells were exposed to each tested compound at a serial final concentration of 100 μM, 10 μM, 5 μM, 1 μM, 0.1 μM, 0.01 μM, and 0.001 μM. • 7. The culture plates were put back to incubator, and cultured for 72 hours at 37° C., 5% CO2. • 8. 72 hours later, cultures were removed from incubator into sterile work area. • 9. The fixative (50% Trichloroacetic Acid-TCA) was prepared by adding reagent grade water to the TCA, fixing the cells by gently layering 50 μl of cold TCA solution on top of the growth medium. • 10. The plates was incubated for 1 hour at 4° C. and then rinsed with water several times to remove TCA, serum proteins, etc. Plates were air dried and stored until use. Bland background optical density was measured in wells incubated with growth medium without cells. • 11. 0.4% Sulforhodamine B solution was prepared by using 10% acetic acid solution. 50 μl sulforhodamine B solution was added to each well of 96-well plates. • 12. The cells were allowed to stain for 30 minutes. • 13. The wash solution of 10% acetic acid was prepared. At the end of the staining period, the stain was removed and the cells were rinsed quickly with 1% acetic acid. Repeat until unincorporated dye was removed. Wash times were kept to a minimum to reduce desorption of protein-bound dye. After being rinsed, the cultures were air dried. • 14. […] Then cultures were allowed to stand for 5 minutes at room temperature, and the mixing of the dye was enhanced by gentle stirring in a gyratory shaker. • 15. The absorbance was measured by spectrophotometry at a wavelength of 565 nm. The background absorbance of 96-well plates at 690 nm was measured and subtracted from the measurement at 565 nm. • 16. The inhibition rate (IR) was calculated as follows:

[3] = tested on: HT-29 human colon cancer; assay: Therapeutic effects against xenografts of HT-29 human colon cancer in nude mice; format: in vivo
Method: The therapeutic effects of Example 63 against xenografts of HT-29 human colon cancer in nude mice were estimated.
The therapeutic effects of the compound of Example 63 against xenografts of HT-29 human colon cancer in nude mice were estimated.
Preparation method: the compound of Example 63 was prepared to corresponding concentration with distilled water.
Six to seven-week-old BALB/cA-nude female mice was purchased from Slaccas Experimental Animal. Certificate No.: SCXK(Shanghai) 2003˜0003. Raising Conditions: SPF level.
Nude mice were hypodermic inoculated HT-29 human colon cancer cell. After tumors grew to 100-300 mm^3, mice were randomly divided into teams (d0). The volume of tumors and weigh of the mice were measured for 2-3 times per week. The calculation formula of the volume of tumor (V) is: V=½×a×b^2, a: length of tumor, b: width of tumor.

T1 sequence (P35968 20-1356): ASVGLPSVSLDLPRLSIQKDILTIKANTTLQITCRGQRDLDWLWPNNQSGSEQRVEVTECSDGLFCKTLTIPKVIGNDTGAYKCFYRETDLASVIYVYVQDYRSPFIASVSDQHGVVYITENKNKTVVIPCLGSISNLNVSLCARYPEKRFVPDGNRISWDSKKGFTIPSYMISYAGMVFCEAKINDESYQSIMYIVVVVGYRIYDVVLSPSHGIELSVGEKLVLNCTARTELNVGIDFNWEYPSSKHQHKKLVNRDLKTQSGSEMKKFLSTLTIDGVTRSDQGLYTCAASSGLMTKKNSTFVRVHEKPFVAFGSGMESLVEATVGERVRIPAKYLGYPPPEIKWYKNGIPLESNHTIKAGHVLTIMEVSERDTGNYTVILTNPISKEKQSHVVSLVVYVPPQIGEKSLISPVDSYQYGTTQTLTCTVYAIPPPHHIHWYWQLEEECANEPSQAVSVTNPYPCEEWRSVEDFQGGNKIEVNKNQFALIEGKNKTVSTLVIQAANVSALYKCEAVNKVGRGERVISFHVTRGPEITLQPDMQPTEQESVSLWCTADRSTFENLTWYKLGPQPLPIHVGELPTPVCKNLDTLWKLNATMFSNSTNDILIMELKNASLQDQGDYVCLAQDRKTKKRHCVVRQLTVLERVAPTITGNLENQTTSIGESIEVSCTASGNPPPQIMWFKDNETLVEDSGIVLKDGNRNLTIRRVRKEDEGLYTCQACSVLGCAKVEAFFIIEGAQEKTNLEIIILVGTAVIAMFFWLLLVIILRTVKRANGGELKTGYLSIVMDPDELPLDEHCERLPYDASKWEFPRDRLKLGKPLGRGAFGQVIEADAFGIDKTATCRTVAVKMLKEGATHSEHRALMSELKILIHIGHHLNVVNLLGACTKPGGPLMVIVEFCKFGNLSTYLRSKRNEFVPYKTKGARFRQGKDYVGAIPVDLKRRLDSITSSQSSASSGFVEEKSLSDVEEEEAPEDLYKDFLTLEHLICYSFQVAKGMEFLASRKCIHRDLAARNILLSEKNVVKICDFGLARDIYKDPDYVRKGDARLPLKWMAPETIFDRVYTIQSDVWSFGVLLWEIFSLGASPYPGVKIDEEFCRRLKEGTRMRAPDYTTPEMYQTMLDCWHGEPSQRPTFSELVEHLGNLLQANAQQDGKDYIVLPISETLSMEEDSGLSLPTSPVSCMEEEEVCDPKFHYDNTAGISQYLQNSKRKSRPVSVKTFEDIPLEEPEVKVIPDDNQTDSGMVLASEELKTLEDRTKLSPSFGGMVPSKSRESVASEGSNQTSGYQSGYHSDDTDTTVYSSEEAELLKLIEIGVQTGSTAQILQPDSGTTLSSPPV

| Compound | IC50 [1] [nM] | IC50 [2] [nM] | other results |
| --- | --- | --- | --- |
| CCN(CC)CCN1CCCc2[nH]c(/C=C3\C(=O)Nc4ccc(Cl)cc43)c(C)c2C1=O [Example 2] | 21 | 288 | – |
| CCN(CC)CCN1CCCc2[nH]c(/C=C3\C(=O)Nc4cc(NCc5ccc(F)cc5)c(F)cc43)c(C)c2C1=O [Example 3, (Z)-5-(2-Diethylamino-ethyl)-2-[5-fluoro-6-(4-fluoro-benzylamino)-2-oxo-1,2-dihydro-indol-3-ylidenemethyl]-3-methyl-5,6,7,8-tetrahydro-1H-pyrrolo[3,2-c]azepin-4-one] | 280 | 100 | – |
| CCN(CC)CCN1CCCc2[nH]c(/C=C3\C(=O)Nc4c(Br)cc(F)cc43)c(C)c2C1=O [Example 4, (Z)-2-(7-Bromo-5-fluoro-2-oxo-1,2-dihydro-indol-3-ylidenemethyl)-5-(2-diethylamino-ethyl)-3-methyl-5,6,7,8-tetrahydro-1H-pyrrolo[3,2-c]azepin-4-one] | 41 | 404 | – |
| CCN(CC)CCN1CCCc2[nH]c(/C=C3\C(=O)Nc4ccc(Br)cc43)c(C)c2C1=O [Example 5] | 8.5 | 100 | – |
| CCN(CC)CCN1CCCc2[nH]c(/C=C3\C(=O)Nc4cccc(-c5cccc(F)c5F)c43)c(C)c2C1=O [Example 6, (Z)-5-(2-Diethylamino-ethyl)-2-[4-(2,3-difluoro-phenyl)-2-oxo-1,2-dihydro-indol-3-ylidenemethyl]-3-methyl-5,6,7,8-tetrahydro-1H-pyrrolo[3,2-c]azepin-4-one] | 23 | 280 | – |
| CCN(CC)CCN1CCCc2[nH]c(/C=C3\C(=O)Nc4cc(NC(=O)COC)c(F)cc43)c(C)c2C1=O [Example 7, (Z)—N-{3-[5-(2-Diethylamino-ethyl)-3-methyl-4-oxo-1,4,5,6,7,8-hexahydro-pyrrolo[3,2-c]azepin-2-ylmethylene]-5-fluoro-2-oxo-2,3-dihydro-1H-indol-6-yl}-2-methoxy-acetamide] | 690 | – | – |
| CCN(CC)CCN1CCCc2[nH]c(/C=C3\C(=O)Nc4cc(NC(=O)[C@H](C)O)c(F)cc43)c(C)c2C1=O [Example 8, (S,Z)—N-{3-[5-(2-Diethylamino-ethyl)-3-methyl-4-oxo-1,4,5,6,7,8-hexahydro-pyrrolo[3,2-c]azepin-2-ylmethylene]-5-fluoro-2-oxo-2,3-dihydro-1H-indol-6-yl}-2-hydroxy-propionamide] | 115 | 308 | – |
| CCN(CC)CCN1CCCc2[nH]c(/C=C3\C(=O)Nc4cc(NC(=O)C(C)(C)O)c(F)cc43)c(C)c2C1=O [Example 9, (Z)—N-{3-[5-(2-Diethylamino-ethyl)-3-methyl-4-oxo-1,4,5,6,7,8-hexahydro-pyrrolo[3,2-c]azepin-2-ylmethylene]-5-fluoro-2-oxo-2,3-dihydro-1H-indol-6-yl}-2-hydroxy-2-methyl-propionamide] | 490 | 68 | – |
| Cc1c(/C=C2\C(=O)Nc3ccc(Cl)cc32)[nH]c2c1C(=O)N(CCN1CCOCC1)CCC2 [Example 10] | 14 | 123 | – |
| Cc1c(/C=C2\C(=O)Nc3cccc(-c4cccc(F)c4F)c32)[nH]c2c1C(=O)N(CCN1CCOCC1)CCC2 [Example 12, (Z)-2-[4-(2,3-Difluoro-phenyl)-2-oxo-1,2-dihydro-indol-3-ylidenemethyl]-3-methyl-5-(2-morpholin-4-yl-ethyl)-5,6,7,8-tetrahydro-1H-pyrrolo[3,2-c]azepin-4-one] | 1 | 300 | – |
| CCN(CC)CCN1CCCc2[nH]c(/C=C3\C(=O)Nc4cccc(Br)c43)c(C)c2C1=O [Example 13, (Z)-2-(4-Bromo-2-oxo-1,2-dihydro-indol-3-ylidenemethyl)-5-(2-diethylamino-ethyl)-3-methyl-5,6,7,8-tetrahydro-1H-pyrrolo[3,2-c]azepin-4-one] | 3 | 804 | – |
| CCN(CC)CCN1CCCc2[nH]c(/C=C3\C(=O)Nc4ncc(Br)cc43)c(C)c2C1=O [Example 14] | 4 | 457 | – |
| CCN(CC)CCN1CCCc2[nH]c(/C=C3\C(=O)Nc4cc(OC)ccc43)c(C)c2C1=O [Example 15, (Z)-5-(2-Diethylamino-ethyl)-2-(6-methoxy-2-oxo-1,2-dihydro-indol-3-ylidenemethyl)-3-methyl-5,6,7,8-tetrahydro-1H-pyrrolo[3,2-c]azepin-4-one] | 2 | 1200 | – |
| CCN(CC)CCN1CCCc2[nH]c(/C=C3\C(=O)Nc4cccc(C)c43)c(C)c2C1=O [Example 16, (Z)-5-(2-Diethylamino-ethyl)-3-methyl-2-(4-methyl-2-oxo-1,2-dihydro-indol-3-ylidenemethyl)-5,6,7,8-tetrahydro-1H-pyrrolo[3,2-c]azepin-4-one] | 1.3 | 210 | – |
| CCN(CC)CCN1CCCc2[nH]c(/C=C3\C(=O)Nc4cccc(CCO)c43)c(C)c2C1=O [Example 17, (Z)-5-(2-Diethylamino-ethyl)-2-[4-(2-hydroxy-ethyl)-2-oxo-1,2-dihydro-indol-3-ylidenemethyl]-3-methyl-5,6,7,8-tetrahydro-1H-pyrrolo[3,2-c]azepin-4-one] | 1 | 129 | – |
| COCC(=O)Nc1cc2c(cc1F)/C(=C/c1[nH]c3c(c1C)C(=O)N(CCN1CCOCC1)CCC3)C(=O)N2 [Example 18, (Z)—N-{5-Fluoro-3-[3-methyl-5-(2-morpholin-4-yl-ethyl)-4-oxo-1,4,5,6,7,8-hexahydro-pyrrolo[3,2-c]azepin-2-ylmethylene]-2-oxo-2,3-dihydro-1H-indol-6-yl}-2-methoxy-acetamide] | 10 | – | – |
| Cc1c(/C=C2\C(=O)Nc3cc(NCc4ccc(F)cc4)c(F)cc32)[nH]c2c1C(=O)N(CCN1CCOCC1)CCC2 [Example 19, (Z)-2-[5-Fluoro-6-(4-fluoro-benzylamino)-2-oxo-1,2-dihydro-indol-3-ylidenemethyl]-3-methyl-5-(2-morpholin-4-yl-ethyl)-5,6,7,8-tetrahydro-1H-pyrrolo[3,2-c]azepin-4-one] | 12 | 146 | – |
| Cc1c(/C=C2\C(=O)Nc3c(NC=O)cc(F)cc32)[nH]c2c1C(=O)N(CCN1CCOCC1)CCC2 [Example 20, (Z)—N-{5-Fluoro-3-[3-methyl-5-(2-morpholin-4-yl-ethyl)-4-oxo-1,4,5,6,7,8-hexahydro-pyrrolo[3,2-c]azepin-2-ylmethylene]-2-oxo-2,3-dihydro-1H-indol-7-yl}-formamide] | 72 | – | – |
| Cc1c(/C=C2\C(=O)Nc3cc(NC(=O)[C@H](C)O)c(F)cc32)[nH]c2c1C(=O)N(CCN1CCOCC1)CCC2 [Example 21, (S,Z)—N-{5-Fluoro-3-[3-methyl-5-(2-morpholin-4-yl-ethyl)-4-oxo-1,4,5,6,7,8-hexahydro-pyrrolo[3,2-c]azepin-2-ylmethylene]-2-oxo-2,3-dihydro-1H-indol-6-yl}-2-hydroxy-propionamide] | 160 | – | – |
| CCN(CC)CCN1CCCc2[nH]c(/C=C3\C(=O)Nc4ccc(F)cc43)c(C)c2C1=O [Example 63, malate] | – | – | T/C (%) ([3]; 40 mg/kg p.o d0~12, P < 0.01 vs control): 31.5* %; RTV (relative tumor volume) ([3]; X ± SD, 40 mg/kg p.o d0~12, dn vs d0): 0.80 ± 0.42; TV (volume of tumor) dn ([3]; X ± SD, 40 mg/kg p.o d0~12, dn: the 13th day after the first dosage): 300 ± 154 mm^3; tolerance of mice to the compound (in words) ([3]; continuous oral dosing, nude mice, malate): well tolerant; also recorded: well tolerant to the compound without obvious toxicity |
